pIC50: −log10 of the molar value. Bounds are passed on as bounds.

Usually pIC50 stands for −log10 of the IC50, conventionally taken in molar units.

Data set [1] is described as follows: Liver microsomal stability (extraction ratio). In kind it is in vitro ADME, mouse, rat, and human. To be noted: test compound 1 μM, 0.5 mg/mL liver microsomes, NADPH 1 mM, 37° C.; ER = predicted hepatic clearance / species blood flow; species not given. On the procedure: Protocol for Liver Microsomal Stability (Extraction Ratio)
Liver Microsomal Stability. Microsomal stability studies (Chrovian et al, “1H-Pyrrolo[3,2-b]pyridine GluN2B-Selective Negative Allosteric Modulators”. ACS Med Chem Lett. 2019 Jan. 10; 10(3):261-266) were conducted on a Biomek® FX Robotic Liquid Handling Workstation (Beckman Coulter, Brea, Calif.), which consists of a 96-channel pipette head, a 12-postion workstation deck, and a plate incubator. Test compounds (1 μm) were spiked in a reaction mix consisting of 100 mM potassium phosphate buffer (pH 7.4), 3 mM MgCl2, and 0.5 mg/mL liver microsomes from mouse, rat, and human (BD Gentest). The reaction was brought to 37° C. and initiated by adding NADPH to a final concentration of 1 mM. After mixing on the platedeck, 50 µL aliquots were excised from the reaction plate at 0, 5, 10, 20, 40, and 60 min and quenched with four volumes of acetonitrile spiked with […] of the internal standard phenytoin. Quenched plates were centrifuged at 5700 rpm for 10 min at 4° C., and supernatant was diluted 1:3 in water before LC/MS/MS analysis. The compound half-lives were derived from plots of the ln of percent remaining compound over time to determine the intrinsic clearance. The predicted hepatic clearance was derived from the intrinsic clearance value using equations from the well-stirred model (Current Drug Metabolism, 2008, 9, 940-951), where no correction was made plasma protein binding and the blood to plasma concentration ratio was assumed to be one.

Data set [2] concerns the target T1, human GluN1/GluN2B NMDA receptors (Homo sapiens, UniProt Q13224).
T1 construct: expressed in transfected cells
Kind of data set: Calcium flux (FLIPR) assay on cloned human NR1/GluN2B ion channels expressed in mammalian cells (standard and HTS variants). To be noted: cells expressing human GluN1/GluN2B, glutamate and glycine co-agonists. In kind it is cell-based. A digest of the protocol: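 Tet-On-induced stable cell line loaded with Calcium 5 dye; compounds applied 5 min (agonist check), then glutamate at ~EC40 plus 10 μM glycine for 5 min. Buffer pH 7.4 with 0.5 mM MgCl2 in dye loading (standard) or 1.5 mM (HTS). FLIPR fluorescence normalized to control wells; (+)MK-801 as antagonist control.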
(A change in cytosolic calcium serves as a functional read-out for many receptors and channels.)

T1 sequence (Q13224 27-1484, other chains not shown): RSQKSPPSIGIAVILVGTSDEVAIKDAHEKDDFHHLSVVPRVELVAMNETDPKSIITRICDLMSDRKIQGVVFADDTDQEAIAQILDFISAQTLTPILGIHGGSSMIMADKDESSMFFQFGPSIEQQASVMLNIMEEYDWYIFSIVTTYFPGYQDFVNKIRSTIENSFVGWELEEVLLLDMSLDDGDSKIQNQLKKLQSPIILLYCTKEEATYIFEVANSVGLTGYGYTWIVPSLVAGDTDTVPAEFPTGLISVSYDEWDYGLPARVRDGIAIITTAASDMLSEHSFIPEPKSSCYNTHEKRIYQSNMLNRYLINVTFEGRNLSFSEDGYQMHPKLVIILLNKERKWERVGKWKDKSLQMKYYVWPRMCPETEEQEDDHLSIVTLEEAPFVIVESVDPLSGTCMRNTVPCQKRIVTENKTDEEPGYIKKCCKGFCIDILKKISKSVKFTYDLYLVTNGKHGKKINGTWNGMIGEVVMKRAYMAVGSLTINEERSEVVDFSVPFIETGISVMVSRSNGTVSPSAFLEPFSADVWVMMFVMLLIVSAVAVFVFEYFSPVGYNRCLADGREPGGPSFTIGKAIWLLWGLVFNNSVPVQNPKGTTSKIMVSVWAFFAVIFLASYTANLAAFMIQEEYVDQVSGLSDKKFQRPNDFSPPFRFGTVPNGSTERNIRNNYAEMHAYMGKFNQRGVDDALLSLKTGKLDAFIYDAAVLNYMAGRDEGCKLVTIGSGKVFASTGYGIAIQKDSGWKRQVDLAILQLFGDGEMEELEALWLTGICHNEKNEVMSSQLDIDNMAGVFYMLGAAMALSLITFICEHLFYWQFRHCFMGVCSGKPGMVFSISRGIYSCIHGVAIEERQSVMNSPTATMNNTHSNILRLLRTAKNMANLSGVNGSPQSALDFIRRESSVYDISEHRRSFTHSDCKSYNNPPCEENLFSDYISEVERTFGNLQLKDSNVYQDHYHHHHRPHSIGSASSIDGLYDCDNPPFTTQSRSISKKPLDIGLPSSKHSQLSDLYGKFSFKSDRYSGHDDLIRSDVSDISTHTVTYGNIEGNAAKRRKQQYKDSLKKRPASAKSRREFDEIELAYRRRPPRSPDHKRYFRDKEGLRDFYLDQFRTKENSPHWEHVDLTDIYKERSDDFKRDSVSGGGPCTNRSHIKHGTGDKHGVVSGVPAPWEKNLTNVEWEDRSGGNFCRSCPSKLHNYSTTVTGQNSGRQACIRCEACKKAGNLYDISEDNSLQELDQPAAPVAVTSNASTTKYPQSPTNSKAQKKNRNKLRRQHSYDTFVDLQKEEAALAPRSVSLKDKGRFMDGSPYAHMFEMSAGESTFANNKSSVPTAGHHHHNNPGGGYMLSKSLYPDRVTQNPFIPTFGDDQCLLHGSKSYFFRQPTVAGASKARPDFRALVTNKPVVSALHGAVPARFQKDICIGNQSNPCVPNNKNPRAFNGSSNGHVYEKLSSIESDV

Consider `Cc1cnc(Cn2ncc3ncc(-c4ccc(F)c(C(F)F)c4)cc32)o1` [Example 8, 2-[[6-[3-(Difluoromethyl)-4-fluoro-phenyl]pyrazolo[4,3-b]pyridin-1-yl]methyl]-5-methyl-oxazole], for which the “Extraction Ratio @ 1 μM” value in data set [1] is recorded as 0.68. Further, in data set [2], the pIC50 was 7.55. As for `Cc1nnc(Cn2ncc3ncc(-c4ccc(F)c(C(F)F)c4)cc32)o1` [Example 10, 2-[[6-[3-(Difluoromethyl)-4-fluoro-phenyl]pyrazolo[4,3-b]pyridin-1-yl]methyl]-5-methyl-1,3,4-oxadiazole], the “Extraction Ratio @ 1 μM” value in data set [1] was 0.31. In addition, in data set [2], the negative-log IC50 (pIC50) was 7.72.

With `Cc1cc(Cn2ncc3ncc(-c4ccc(F)c(C(F)F)c4)cc32)on1` [Example 52, 5-[[6-[3-(Difluoromethyl)-4-fluoro-phenyl]pyrazolo[4,3-b]pyridin-1-yl]methyl]-3-methyl-isoxazole], the “Extraction Ratio @ 1 μM” value in data set [1] is 0.69. Besides, the pIC50 in data set [2] is 7.66. As to `Cc1ccc(Cn2ncc3ncc(-c4ccc(F)c(OC(F)F)c4)cc32)nn1` [Example 264, 6-[3-(Difluoromethoxy)-4-fluoro-phenyl]-1-[(6-methylpyridazin-3-yl)methyl]pyrazolo[4,3-b]pyridine], the pIC50 in data set [2] is 6.20. For the molecule `FC(F)Oc1cc(-c2cnc3cnn(Cc4cccnn4)c3c2)ccc1Cl` [Example 265, 6-[4-Chloro-3-(difluoromethoxy)phenyl]-1-(pyridazin-3-ylmethyl)pyrazolo[4,3-b]pyridine], the pIC50 in data set [2] is 6.94. Turning to `Fc1ccc(-c2cnc3cnn(Cc4cccnn4)c3c2)cc1F` [Example 266, 6-(3,4-Difluorophenyl)-1-(pyridazin-3-ylmethyl)pyrazolo[4,3-b]pyridine], the negative-log IC50 (pIC50) in data set [2] was 6.17. For the molecule `Cc1cc(-c2cnc3cnn(Cc4cccnn4)c3c2)ccc1Cl` [Example 267, 6-(4-Chloro-3-methyl-phenyl)-1-(pyridazin-3-ylmethyl)pyrazolo[4,3-b]pyridine], the negative logarithm of the IC50 (pIC50) in data set [2] is 6.39. On to `Fc1cc(-c2cnc3cnn(Cc4cccnn4)c3c2)cc(F)c1F` [Example 268, 1-(Pyridazin-3-ylmethyl)-6-(3,4,5-trifluorophenyl)pyrazolo[4,3-b]pyridine], for which, in data set [2], the pIC50 is 6.17. Still for that read-out and setting: the result for `Cc1c(F)ccc(-c2cnc3cnn(Cc4cccnn4)c3c2)c1F` [Example 269, 6-(2,4-Difluoro-3-methyl-phenyl)-1-(pyridazin-3-ylmethyl)pyrazolo[4,3-b]pyridine] reads 6.97; that for `Fc1ccc(-c2cnc3cnn(Cc4ccncn4)c3c2)cc1C(F)F` [Example 270, 6-[3-(Difluoromethyl)-4-fluoro-phenyl]-1-(pyrimidin-4-ylmethyl)pyrazolo[4,3-b]pyridine], 6.75. With `Fc1ccc(-c2cnc3cnn(Cc4ccncn4)c3c2)cc1OC(F)F` [Example 271, 6-[3-(Difluoromethoxy)-4-fluoro-phenyl]-1-(pyrimidin-4-ylmethyl)pyrazolo[4,3-b]pyridine], the pIC50 in data set [2] is 6.40. As for `Fc1ccc(-c2cnc3cnn(Cc4cnccn4)c3c2)cc1C(F)F` [Example 272, 6-[3-(Difluoromethyl)-4-fluoro-phenyl]-1-(pyrazin-2-ylmethyl)pyrazolo[4,3-b]pyridine], the negative-log IC50 (pIC50) in data set [2] is 7.43. Consider `Fc1ccc(-c2cnc3cnn(Cc4cnccn4)c3c2)cc1OC(F)F` [Example 273, 6-[3-(Difluoromethoxy)-4-fluoro-phenyl]-1-(pyrazin-2-ylmethyl)pyrazolo[4,3-b]pyridine], for which the negative logarithm of the IC50 (pIC50) in data set [2] is 6.49. On the same count and under the same terms, to `CC(F)(F)c1cccc(-c2cnc3cnn(Cc4cncnc4)c3c2)c1` [Example 274, 6-[3-(1,1-Difluoroethyl)phenyl]-1-(pyrimidin-5-ylmethyl)pyrazolo[4,3-b]pyridine] belongs 7.29.

For the molecule `FC(F)(F)c1cccc(-c2cnc3cnn(Cc4cncnc4)c3c2)c1` [Example 276, 1-(Pyrimidin-5-ylmethyl)-6-[3-(trifluoromethyl)phenyl]pyrazolo[4,3-b]pyridine], in data set [2], the negative-log IC50 (pIC50) is 6.84. Turning to `CC(F)(F)c1cc(-c2cnc3cnn(Cc4cncnc4)c3c2)ccc1F` [Example 277, 6-[3-(1,1-Difluoroethyl)-4-fluoro-phenyl]-1-(pyrimidin-5-ylmethyl)pyrazolo[4,3-b]pyridine], in data set [2], the negative logarithm of the IC50 (pIC50) is 7.19.

As to `Fc1ccc(-c2cnc3cnn(Cc4cncnc4)c3c2)cc1OC(F)F` [Example 278, 6-[3-(Difluoromethoxy)-4-fluoro-phenyl]-1-(pyrimidin-5-ylmethyl)pyrazolo[4,3-b]pyridine], the pIC50 in data set [2] is 7.28. In the case of `FC(F)Oc1cc(-c2cnc3cnn(Cc4cncnc4)c3c2)ccc1Cl` [Example 279, 6-[4-Chloro-3-(difluoromethoxy)phenyl]-1-(pyrimidin-5-ylmethyl)pyrazolo[4,3-b]pyridine], the pIC50 in data set [2] was 7.05. The same measure, in the same setting: the result for `Cc1cc(Cn2ncc3ncc(-c4ccc(F)c(C(F)F)c4)cc32)ncn1` [Example 280, 6-[3-(Difluoromethyl)-4-fluoro-phenyl]-1-[(6-methylpyrimidin-4-yl)methyl]pyrazolo[4,3-b]pyridine] reads 6.65; that for `Cc1cc(Cn2ncc3ncc(-c4ccc(F)c(OC(F)F)c4)cc32)ncn1` [Example 281, 6-[3-(Difluoromethoxy)-4-fluoro-phenyl]-1-[(6-methylpyrimidin-4-yl)methyl]pyrazolo[4,3-b]pyridine], 6.01. On to `Cc1nccc(Cn2ncc3ncc(-c4ccc(F)c(C(F)F)c4)cc32)n1` [Example 282, 6-[3-(Difluoromethyl)-4-fluoro-phenyl]-1-[(2-methylpyrimidin-4-yl)methyl]pyrazolo[4,3-b]pyridine], for which the negative-log IC50 (pIC50) in data set [2] is 6.41. As for `Cc1nccc(Cn2ncc3ncc(-c4cccc(C(F)(F)F)c4)cc32)n1` [Example 283, 1-[(2-Methylpyrimidin-4-yl)methyl]-6-[3-(trifluoromethyl)phenyl]pyrazolo[4,3-b]pyridine], in data set [2], the negative-log IC50 (pIC50) is 5.49. In the case of `Cc1nccc(Cn2ncc3ncc(-c4ccc(F)c(OC(F)F)c4)cc32)n1` [Example 284, 6-[3-(Difluoromethoxy)-4-fluoro-phenyl]-1-[(2-methylpyrimidin-4-yl)methyl]pyrazolo[4,3-b]pyridine], the pIC50 in data set [2] is 6.03. On the same count and under the same terms, the result for `Cc1ncc(Cn2ncc3ncc(-c4ccc(F)c(F)c4)cc32)cn1` [Example 285, 6-(3,4-Difluorophenyl)-1-[(2-methylpyrimidin-5-yl)methyl]pyrazolo[4,3-b]pyridine] reads less than 5.00; that for `Cc1ncc(Cn2ncc3ncc(-c4ccc(Cl)c(C)c4)cc32)cn1` [Example 286, 6-(4-Chloro-3-methyl-phenyl)-1-[(2-methylpyrimidin-5-yl)methyl]pyrazolo[4,3-b]pyridine], 5.52; that for `Cc1cnc(Cn2ncc3ncc(-c4cccc(C(F)(F)F)c4)cc32)nc1` [Example 287, 1-[(5-Methylpyrimidin-2-yl)methyl]-6-[3-(trifluoromethyl)phenyl]pyrazolo[4,3-b]pyridine], 5.49.

On to `COc1cc(Cn2ncc3ncc(-c4ccc(F)c(C(F)F)c4)cc32)ncn1` [Example 288, 6-[3-(Difluoromethyl)-4-fluoro-phenyl]-1-[(6-methoxypyrimidin-4-yl)methyl]pyrazolo[4,3-b]pyridine], for which the negative logarithm of the IC50 (pIC50) in data set [2] is 6.74.

In the case of `COc1cc(Cn2ncc3ncc(-c4ccc(F)c(OC(F)F)c4)cc32)ncn1` [Example 289, 6-[3-(Difluoromethoxy)-4-fluoro-phenyl]-1-[(6-methoxypyrimidin-4-yl)methyl]pyrazolo[4,3-b]pyridine], in data set [2], the pIC50 is 6.46. Still for that read-out and setting: to `COc1nccc(Cn2ncc3ncc(-c4ccc(F)c(C(F)F)c4)cc32)n1` [Example 290, 6-[3-(Difluoromethyl)-4-fluoro-phenyl]-1-[(2-methoxypyrimidin-4-yl)methyl]pyrazolo[4,3-b]pyridine] belongs 6.49; to `COc1nccc(Cn2ncc3ncc(-c4ccc(F)c(OC(F)F)c4)cc32)n1` [Example 291, 6-[3-(Difluoromethoxy)-4-fluoro-phenyl]-1-[(2-methoxypyrimidin-4-yl)methyl]pyrazolo[4,3-b]pyridine], 6.03. Still for that read-out and setting: the result for `OCc1nnc(Cn2ncc3ncc(-c4ccc(F)c(C(F)F)c4)cc32)o1` [Example 292, (5-((6-(3-(Difluoromethyl)-4-fluorophenyl)-1H-pyrazolo[4,3-b]pyridin-1-yl)methyl)-1,3,4-oxadiazol-2-yl)methanol] reads 6.77; that for `Cc1nnc(Cn2ncc3ncc(-c4ccc(F)c(C(=O)O)c4)cc32)o1` [Example 293, 2-Fluoro-5-(1-((5-methyl-1,3,4-oxadiazol-2-yl)methyl)-1H-pyrazolo[4,3-b]pyridin-6-yl)benzoic acid], less than 5.00.
